Assay results from PubChem BioAssay AID1918996 (Molecular Pharmacology Branch, DTP, NCI, 2023).

System: 349418-098-R-PDC complex spheroid growth
Experiment: Anticancer human tumor 349418-098-R-PDC patient-derived lung adenocarcinoma cell line growth inhibition [AhR]
Details: for IC50: curve of first compound; for viability, T/C: stronger effect = lower value
Outline: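 Agents were dosed in half-log steps down from roughly clinical Cmax, or from 10 microM where Cmax was unknown, alone and with AhR antagonists. Read-out: percent test/control growth of tumor spheroids containing HUVEC and MSC stromal cells.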
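Also: spheroids exposed to agents for seven days before luminescence viability read.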
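For viability, T/C in this document: spheroids also contain HUVEC endothelial cells and human MSC stroma.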

`CC(C)c1c(-c2ccccc2)nc2c(C#N)c[nH]n2c1=O` + Cc1cncc(-c2nc(NCCc3c[nH]c4ccccc34)c3ncn(C(C)C)c3n2)c1 was tested, and the IC50 (second compound 0.1 µM) was over 10 µM, the IC50 (second compound 0.316 µM) was over 10 µM and the IC50 (second compound 1 µM) was over 10 µM. The IC50 (second compound 3.16 µM) was under 0.0316 µM, the IC50 (second compound 10 µM) was under 0.0316 µM and the viability, T/C (second compound 0.1 µM, first compound 0.0316 µM) was 102%. It also gave a viability, T/C (second compound 0.1 µM, first compound 0.1 µM) of 94.6%, a viability, T/C (second compound 0.1 µM, first compound 0.316 µM) of 97.9% and a viability, T/C (second compound 0.1 µM, first compound 1 µM) of 97.2%. It also gave a viability, T/C (second compound 0.1 µM, first compound 3.16 µM) of 97%, a viability, T/C (second compound 0.1 µM, first compound 10 µM) of 101% and a viability, T/C (second compound 0.316 µM, first compound 0.0316 µM) of 96.8%. For the same molecule, the viability, T/C (second compound 0.316 µM, first compound 0.1 µM) was 82.4%, the viability, T/C (second compound 0.316 µM, first compound 0.316 µM) was 105% and the viability, T/C (second compound 0.316 µM, first compound 1 µM) was 93.2%. For the same molecule, the viability, T/C (second compound 0.316 µM, first compound 3.16 µM) was 83.3%, the viability, T/C (second compound 0.316 µM, first compound 10 µM) was 95.2% and the viability, T/C (second compound 1 µM, first compound 0.0316 µM) was 94.1%. For the same molecule, the viability, T/C (second compound 1 µM, first compound 0.1 µM) was 87%, the viability, T/C (second compound 1 µM, first compound 0.316 µM) was 83.6% and the viability, T/C (second compound 1 µM, first compound 1 µM) was 85.9%. It also gave a viability, T/C (second compound 1 µM, first compound 3.16 µM) of 78.6%, a viability, T/C (second compound 1 µM, first compound 10 µM) of 83.7% and a viability, T/C (second compound 3.16 µM, first compound 0.0316 µM) of 15.8%. The viability, T/C (second compound 3.16 µM, first compound 0.1 µM) was 16.5%, the viability, T/C (second compound 3.16 µM, first compound 0.316 µM) was 17.4% and the viability, T/C (second compound 3.16 µM, first compound 1 µM) was 12.2%. The viability, T/C (second compound 3.16 µM, first compound 3.16 µM) was 11.3%, the viability, T/C (second compound 3.16 µM, first compound 10 µM) was 12.6% and the viability, T/C (second compound 10 µM, first compound 0.0316 µM) was 0.96%. For the same molecule, the viability, T/C (second compound 10 µM, first compound 0.1 µM) was 1.33%, the viability, T/C (second compound 10 µM, first compound 0.316 µM) was 1.19% and the viability, T/C (second compound 10 µM, first compound 1 µM) was 0.58%. For the same molecule, the viability, T/C (second compound 10 µM, first compound 3.16 µM) was 0.81% and the viability, T/C (second compound 10 µM, first compound 10 µM) was 1.09%.
